Reference: the NIST ThermoML archive (doi:10.1021/je900732r)

Test: mn = molality of the nth substance listed, in mol/kg
Settings: 101 kPa, Liquid; for speed of sound: Pulse-echo method

[Ni+2].[O-][Cl+3]([O-])([O-])[O-].[O-][Cl+3]([O-])([O-])[O-] [nickel perchlorate] + C[S+](C)[O-]
mass density [kg/m3]
Settings	293.15 K	298.15 K	303.15 K	313.15 K	323.15 K	333.15 K
m1 = 0.01259	1102.91	1097.89	1092.88	1082.85	1072.82	1062.8
m1 = 0.01738	1103.94	1098.92	1093.91	1083.88	1073.87	1063.85
m1 = 0.02515	1105.61	1100.6	1095.59	1085.57	1075.56	1065.56
m1 = 0.03153	1106.98	1101.97	1096.96	1086.96	1076.96	1066.96
m1 = 0.03816	1108.41	1103.4	1098.4	1088.4	1078.41	1068.42
m1 = 0.051	1111.18	1106.18	1101.18	1091.2	1081.23	1071.27
m1 = 0.06341	1113.88	1108.88	1103.89	1093.92	1083.97	1074.01
m1 = 0.07675	1116.78	1111.79	1106.81	1096.86	1086.92	1076.99
m1 = 0.08797	1119.23	1114.24	1109.27	1099.34	1089.42	1079.5
m1 = 0.1004	1121.96	1116.98	1112.02	1102.1	1092.19	1082.3
m1 = 0.1126	1124.63	1119.67	1114.7	1104.8	1094.91	1085.03
m1 = 0.1251	1127.4	1122.43	1117.49	1107.6	1097.73	1087.86

CO [methanol] + [Co+2].[O-][Cl+3]([O-])([O-])[O-].[O-][Cl+3]([O-])([O-])[O-]
m2 = 0
Settings	mass density [kg/m3]
283.15 K	800.55
288.15 K	795.872
293.15 K	791.172
298.15 K	786.464
303.15 K	781.742
308.15 K	776.992
313.15 K	772.214

C[S+](C)[O-] [dimethyl sulfoxide] + [O-][Cl+3]([O-])([O-])[O-].[O-][Cl+3]([O-])([O-])[O-].[Zn+2]
m2 = 0
Settings	mass density [kg/m3]
293.15 K	1100.23
298.15 K	1095.2
303.15 K	1090.18
313.15 K	1080.12
323.15 K	1070.08
333.15 K	1060.04

O=S(=O)([O-])C(F)(F)F.O=S(=O)([O-])C(F)(F)F.[Cu+2] [copper(II) trifluoromethanesulfonate] + CO
Settings	mass density, 283.15 K [kg/m3]	mass density, 288.15 K [kg/m3]	mass density, 293.15 K [kg/m3]	mass density, 298.15 K [kg/m3]	mass density, 303.15 K [kg/m3]	mass density, 308.15 K [kg/m3]	mass density, 313.15 K [kg/m3]	speed of sound, 298.15 K [m/s]
m1 = 0.1213	829.484	824.791	820.094	815.38	810.649	805.885	801.107	1106
m1 = 0.1418	834.535	829.841	825.141	820.428	815.692	810.942	806.159	1106.6
m1 = 0.1772	843.312	838.612	833.908	829.19	824.45	819.682	814.901	1107.4
m1 = 0.2047	850.214	845.512	840.803	836.081	831.338	826.565	821.777	1108.2
m1 = 0.231	856.972	852.265	847.554	842.828	838.081	833.302	828.513	1109.1
m1 = 0.2571	863.707	858.996	854.279	849.545	844.805	840.033	835.231	1109.7
m1 = 0.2847	871.006	866.292	861.57	856.839	852.088	847.311	842.504	1110.5

[O-][Cl+3]([O-])([O-])[O-].[O-][Cl+3]([O-])([O-])[O-].[Zn+2] [zinc perchlorate] + C[S+](C)[O-]
mass density [kg/m3]
Settings	293.15 K	298.15 K	303.15 K	313.15 K	323.15 K	333.15 K
m1 = 0.0168	1103.88	1098.86	1093.85	1083.82	1073.81	1063.78
m1 = 0.02409	1105.47	1100.46	1095.45	1085.43	1075.43	1065.41
m1 = 0.02918	1106.59	1101.58	1096.56	1086.56	1076.56	1066.55
m1 = 0.03465	1107.79	1102.78	1097.78	1087.77	1077.77	1067.77
m1 = 0.05104	1111.38	1106.39	1101.39	1091.4	1081.43	1071.45
m1 = 0.06794	1115.12	1110.13	1105.14	1095.18	1085.22	1075.26
m1 = 0.08574	1119.08	1114.1	1109.12	1099.17	1089.23	1079.3
m1 = 0.1022	1122.78	1117.8	1112.83	1102.91	1092.99	1083.08
m1 = 0.119	1126.55	1121.58	1116.62	1106.7	1096.8	1086.9
m1 = 0.1435	1132.09	1127.14	1122.19	1112.3	1102.43	1092.57
m1 = 0.1684	1137.8	1132.85	1127.91	1118.05	1108.21	1098.37
